# Results from PMC8710297, “Identification of potent SENP1 inhibitors that inactivate SENP1/JAK2/STAT signaling pathway and overcome platinum drug resistance in ovarian cancer” (Clinical and Translational Medicine, 2021).
# System: STAT3
# Assay: IHC staining of pSTAT3 in xenograft tumor samples
# Format: in vivo, mice
# Settings: IGROV1 CR xenograft tumor samples
# Procedure: Cell viability was measured by SRB assay. […] Data were represented as mean ± SD (n = 3). (B) Colony formation assay in cells treated as indicated. […] (D) Growth curves of xenograft tumors are shown in (C). Data are represented as means ± SEM, n = 6 mice/group. **p < 0.01. […] (F) IGROV1 CR xenograft tumor growth curve by indicated treatments. Data are represented as means ± SD, n = 6 tumors/group. **p < 0.01. (G) Immunohistochemistry (IHC) staining against pSTAT3 antibodies of tumor samples from four groups of mice (magnification, 200x) (Upper).
# Immun ohistochemical (IHC) sta i n in g an d scor ing we r e performed as prev iou sl y described (2).
# The qu anti ficatio n of immunohistochemical sta in ing wa s scored blindly at lea st by two independent obser vers. Antibodies used in IHC as say are: SENP1 (ab108981, Abcam, Cambridge, UK), JA K 2 , p‐STAT 3 (ab76315; Abcam), Bc l‐xL (2764S; Cell Signaling Technology) (#3776, Cell Signaling Technologies, Danvers, MA, USA).
# 11. Cellular thermal shift assay and in vitro thermal shift assay
# Cellular thermal shift assay was as previously described (5). Briefly, cells were pretreated with MG132 (10 µM, 1 hour) then incubated wi th DMSO, Mc, UA or UAMMC9 (2 µM) for 4 hours. […]
compound,measurement,value
C[C@H]1[C@H](C)CC[C@]2(C(=O)NCC(=O)N(C)CCO)CC[C@]3(C)C(=CC[C@@H]4[C@@]5(C)CC[C@H](O)C(C)(C)[C@@H]5CC[C@]43C)[C@H]12 [UAMMC9],activation of STAT3 in vivo (pSTAT3 IHC),inhibit the activation of STAT3
